Experimental data published in paper PMC11946679 (Toxics, 2025).
Marks after values point to notes of the source that are not given here.

Key:
[1] = tested on: human peripheral blood lymphocytes; format: cell-based; conditions: alone, 3 h, IRI 9.0 mg/L, bleomycin 15 mg/L; for Total No. of Cells in Apoptosis / Total No. of Nonviable Cells: scored along with 4000 binucleated cells
Description: While screening microscope preparations to determine trends in the levels of the main CBMN assay descriptors, nonviable cells were also simultaneously counted on the same slides. Their discrimination was based on the specific morphological features typical for apoptosis or necrosis. It is well known that the biological significance of these phenomena differs deeply, and that the determination of the predominant type of cell death represents a very important issue in each experimental setting.
For each experimental group, we also calculated the ratio between the recorded number of nonviable cells and the cells in apoptosis (Table 5). According to reference, a ratio ≤ 1 means a prevalence of apoptotic events that induce cell death, while a ratio > 1 indicates the acute toxicity of the tested substance that promotes necrosis.

[2] = tested on: human peripheral blood lymphocytes; assay: CBMN cytome assay: micronuclei, nuclear buds, nucleoplasmic bridges; conditions: alone, 3 h; IRI 9.0 mg/L, bleomycin 15 mg/L
Experimental: The CBMN assay was performed in line with standard protocols [8, 23].
To collect the blood sample, lithium heparin-coated tubes were used (BD vacutainer® with LH 170 I.U., Becton Dickinson: BD-Plymouth PL6 78P, UK).
There were 15 experimental groups altogether. The same experimental design was applied in two independent trials, each of which had two replicate cultures per experimental group; therefore, four replicate cultures for every single experimental group were established.
To induce cell division prior to exposure to the test chemicals, lymphocytes were stimulated with the mitogen phytohemagglutinin (PHA). Cultures were kept in a humidified atmosphere of 5% CO2 at 37 °C.
They started 41 h after PHA stimulation and lasted for 3 h at 37 °C.
Upon completion of exposure, lymphocyte cultures were centrifuged at 100× g. […] This procedure was timed for the 44th hour of lymphocyte cultivation, which represents a critical point for adding of cytoB to hinder cytokinesis and obtain binucleated cells. All treated and control cultures were further maintained at 37 °C until the end of the 72nd hour of cultivation, according to the above-mentioned standard protocols.
The first step in the preparation of microscopic slides was harvesting of cells by centrifugation (100× g), followed by treatment with 0.075 mol/L potassium chloride and succeeded by centrifugation. The sediments of cells were repeatedly fixed with methanol/acetic acid (3:1 v/v) followed by centrifugation. The final lymphocyte suspension was pipetted onto clean microscope slides. For staining, 5% aqueous solution of Giemsa dye was used. Slides were screened using a light microscope at 1000× magnification. For morphological discrimination of micronuclei (MNi), nuclear buds (NBs), nucleoplasmic bridges (NPBs) and cells in apoptosis or necrosis, the criteria by Fenech et al. [25] and Fenech [23] were applied. To determine their frequencies, per experimental point, a total of 4 × 1000 binucleated (BN) cells were scored.
This value was first used to estimate the number of MNi required to reach a decrease and an increase considered significant at a 5% significance level.

[3] = tested on: human peripheral blood lymphocytes; assay: CBMN cytome assay: lymphocyte proliferation (M1-M4, CBPI, RI); format: cell-based; conditions: alone, 3 h; IRI 9.0 mg/L, bleomycin 15 mg/L
Experimental: On the same slides, parameters of cell proliferation and cytotoxicity were also evaluated, in line with the OECD protocol.

Compound: Bleomycin [reference compound]
- Ratio (nonviable cells and cells in apoptosis) [1]: 0.6
- Total No. of Cells in Apoptosis [1]: 59
- Total No. of Nonviable Cells [1]: 100
- Distribution of BNMN Cells with 1 MN [2]: 65 *
- Distribution of BNMN Cells with 2 MN [2]: 11 iri, g10+iri
- Distribution of BNMN Cells with 3 MN [2]: 2
- Distribution of BNMN Cells with 4 MN [2]: 1
- Distribution of BNNB Cells with 1 NB [2]: 49 *
- Distribution of BNNB Cells with 2 NB [2]: 4 c,p1,p5,p10,g1, g5,g10, p1+iri, p5+iri, p10+iri, g5+iri, g10+iri
- Distribution of BNNPB Cells with 1 NPB [2]: 7 c,p1,p5,p10,g1, g5,g10, p1+iri, p5+iri, p10+iri, g1+iri, g5+iri, g10+iri
- Distribution of BNNPB Cells with 2 NPB [2]: 0
- Micronuclei (MNi) Mean (BNMN)1000 ± SD [2]: 19.75 ± 3.77
- Micronuclei (MNi) Mean (MNi)1000 ± SD [2]: 24.25 ± 6.24
- Micronuclei (MNi) Total (BNMN)4000 [2]: 79 *
- Micronuclei (MNi) Total (MNi)4000 [2]: 97 *
- Nuclear Buds (NBs) Mean (BNNB)1000 ± SD [2]: 13.25 ± 0.96
- Nuclear Buds (NBs) Mean (NBs)1000 ± SD [2]: 14.25 ± 0.50
- Nuclear Buds (NBs) Total (BNNB)4000 [2]: 53 *
- Nuclear Buds (NBs) Total (NBs)4000 [2]: 57 *
- Nucleoplasmic Bridges (NPBs) Mean (BNNPB)1000 ± SD [2]: 1.75 ± 1.26 c,p1,p5,p10, g1,g5,g10, p1+iri, p5+iri, p10+iri, g1+iri, g5+iri, g10+iri
- Nucleoplasmic Bridges (NPBs) Mean (NPBs)1000 ± SD [2]: 1.75 ± 1.26 c,p1,p5,p10, g1,g5,g10, p1+iri, p5+iri, p10+iri, g1+iri, g5+iri, g10+iri
- Nucleoplasmic Bridges (NPBs) Total (BNNPB)4000 [2]: 7 c,p1,p5, p10,g1,g5,g10,p1+iri,p5+iri, p10+iri, g1+iri, g5+iri, g10+iri
- Nucleoplasmic Bridges (NPBs) Total (NPBs)4000 [2]: 7 c,p1,p5,p10,g1,g5,g10,p1+iri, p5+iri, p10+iri, g1+iri, g5+iri, g10+iri
- % of Cells with 1 to 4 Nuclei M1 [3]: 45.5 ^↑ %
- % of Cells with 1 to 4 Nuclei M2 [3]: 46.1 ^↓ %
- % of Cells with 1 to 4 Nuclei M3 [3]: 4.2%
- % of Cells with 1 to 4 Nuclei M4 [3]: 4.2 ^↓ %
- CBPI [3]: 1.629
- Replication Index (%) [3]: 64.0%

Compound: CCc1c2c(nc3ccc(OC(=O)N4CCC(N5CCCCC5)CC4)cc13)-c1cc3c(c(=O)n1C2)COC(=O)[C@]3(O)CC [Irinotecan, reference compound]
- Total No. of Cells in Apoptosis [1]: 42
- Total No. of Nonviable Cells [1]: 76
- % of Cells with 1 to 4 Nuclei M1 [3]: 43.1 ^↑ %
- % of Cells with 1 to 4 Nuclei M2 [3]: 52.9 ^↓ %
- % of Cells with 1 to 4 Nuclei M3 [3]: 2.0 ^↓ %
- % of Cells with 1 to 4 Nuclei M4 [3]: 2.0 ^↓ %
- CBPI [3]: 1.609
